According to patent US12528790B2, “Amide derivative having antiviral activity” (Shionogi & Co., Ltd., priority 2020, dated 2026):
Where two headings read alike, the source gives them in different places.

Experiments:
[1] = system: RSV B (Wash/18537 strain); experiment: In vitro CPE (CytoPathic Effect) inhibition effect evaluation test, RSV type B; assay type: cell-based; details: human respiratory syncytial virus
Procedure: The test sample is diluted in advance to an appropriate concentration with DMSO, and 3-fold series of serial dilutions were prepared on a 384-well plate (0.32 μL/well). HEp-2 cells (CCL-23; ATCC) adjusted at appropriate number (2.4×10^5 cells/mL) in 2% FBS E-MEM (prepared by adding kanamycin and FBS to Eagle's Minimum Essential Medium; Invitrogen) were added at 12.5 μL/well to the 384-well plate previously aliquoted with the test samples. The RSV A2 strain was diluted to an appropriate concentration in a culture medium and added to the 384-well plate containing the test sample at 12.5 μL/well. The culture medium was added additionally to the 384-well plate, and the test was started with 50 μL/well. Control wells were prepared with only virus-free culture medium. The plate was incubated in a 5% CO2 incubator at 37° C. for 4 days, and the plate was then placed at room temperature for 30 minutes. CellTiter-Glo (registered trademark) 2.0 assay (Promega) was added at 15 μL/well, mixed for 30 seconds, and the plate was placed for approximately 1 hour. The luminescent signal was then measured by EnVision (PerkinElmer). The inhibitory effect of the test agents on RSV-induced CPE was calculated as 0% and 100% inhibition rate for each sample concentration based on the level of remaining viable cells by CellTiter-Glo (registered trademark) 2.0, with the EC50 value for each compound calculated by nonlinear regression as the concentration that inhibits RSV-induced CPE by 50%. In the case of evaluation against RSV type B, RSV B (Wash/18537 strain) was infected in the same manner as the type A, cultured for 5 days, and quantitated in the same manner as for the A2 strain.

[2] = system: RSV A2 strain; experiment: In vitro CPE (CytoPathic Effect) inhibition effect evaluation test, RSV type A; assay type: cell-based; details: human respiratory syncytial virus
Outline: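 EC50 is the concentration giving 50% inhibition of virus-induced cytopathic effect, fitted by nonlinear regression from CellTiter-Glo 2.0 viability. Compounds in 3-fold series were co-incubated at 37 °C with HEp-2 cells and RSV: A2 strain for 4 days, B (Wash/18537) for 5 days; uninfected wells served as control.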

[3] = inhibitory effect against RSV type B, CPE inhibition, read-out: EC50
[4] = inhibitory effect against RSV type A (RSV A2 strain), HEp-2 cells, CPE inhibition, read-out: EC50
[5] = HEp-2, 120 h, HEp-2 cells, RSV B (Wash/18537 strain), 5 days, CellTiter-Glo, read-out: EC50, inhibitory effect against RSV type B (CPE inhibition)
[6] = HEp-2, 96 h, read-out: EC50, inhibitory effect against RSV type A (CPE inhibition)

Compound	EC50 [1, 3] [nM]	EC50 [2, 4] [nM]	EC50 [1, 5] [nM]	EC50 [2, 6] [nM]
CN(C)CCCc1nc(N2CCc3cc(OCCC4CCOCC4)ccc32)nc(C(F)(F)F)c1C(=O)NC1(C(=O)O)C2CC3CC(C2)CC1C3 (stereo not drawn) [Compound I-160]	100 to 5000	10 to 100		
O=C(NC1(C(=O)O)C2CC3CC(C2)CC1C3)c1ccc(-c2cn(C3CCC(F)(F)CC3)c3cc(OC4CCN(c5ncccn5)CC4)ccc23)nc1C(F)(F)F (stereo not drawn) [Compound I-162]			3.3	0.88
O=C(N[C@]1(C(=O)O)[C@@H]2CC3C[C@H]1C[C@@](F)(C3)C2)c1cnc(N2CC3(CCOCC3)c3cc(OC4CCN(c5ncccn5)CC4)ccc32)nc1C(F)(F)F [Compound I-165]			0.62	0.37
O=C(NC1(C(=O)O)C2CC3CC(C2)CC1C3)c1ccc(-c2cn(-c3ccccn3)c3cc(OC4CCN(c5ncccn5)CC4)ccc23)nc1C(F)(F)F (stereo not drawn) [Compound I-175]	< 10	< 10		
O=C(NC1(C(=O)O)C2CC3CC(C2)CC1C3)c1ccc(-c2cn(-c3ccncc3)c3cc(OC4CCN(c5ncccn5)CC4)ccc23)nc1C(F)(F)F (stereo not drawn) [Compound I-176]	< 10	< 10		
O=C(NC1(C(=O)O)C2CC3CC(C2)CC1C3)c1ccc(-c2cn(-c3cccnc3)c3cc(OC4CCN(c5ncccn5)CC4)ccc23)nc1C(F)(F)F (stereo not drawn) [Compound I-177]	< 10	< 10		
O=C(NC1(C(=O)O)C2CC3CC(C2)CC1C3)c1cnc(-c2c3ccc(OC4CCN(c5ncccn5)CC4)cc3nn2C2CCOCC2)nc1C(F)(F)F (stereo not drawn) [Compound I-182]			2.1	0.39
CN(C)CCCc1nc(N2CC3(CCOCC3)c3cc(OC4CCN(c5ncccn5)CC4)ccc32)nc(C(F)(F)F)c1C(=O)NC1(C(=O)O)C2CC3CC(C2)CC1C3 (stereo not drawn) [Compound I-183]	10 to 100	< 10		
O=C(NC1(C(=O)O)C2CC3CC(C2)CC1C3)c1cnc(N2CC3(CCOCC3)c3cc(OC4CCN(C5COC5)CC4)ccc32)nc1C(F)(F)F (stereo not drawn) [Compound I-184]	< 10	< 10		
O=C(NC1(C(=O)O)C2CC3CC(C2)CC1C3)c1cnc(N2CC3(CCOCC3)c3cc(O[C@H]4CC[C@H](n5cccn5)CC4)ccc32)nc1C(F)(F)F (stereo partly drawn) [Compound I-193]	< 10	< 10		
O=C(NC1(C(=O)O)C2CC3CC(C2)CC1C3)c1cnc(N2CC3(CCOCC3)c3cc(OC4CCS(=O)(=O)CC4)ccc32)nc1C(F)(F)F (stereo not drawn) [Compound I-203]	< 10	< 10		
CN1CCN(CCOc2ccc3c(c2)C2(CCOCC2)CN3c2ncc(C(=O)NC3(C(=O)O)C4CC5CC(C4)CC3C5)c(C(F)(F)F)n2)CC1 (stereo not drawn) [Compound I-204]	10 to 100	< 10		
O=C(NC1(C(=O)O)C2CC3CC(C2)CC1C3)c1cnc(N2CC3(CCCCC3)c3cc(OC4CCN(c5ncccn5)CC4)ccc32)nc1C(F)(F)F (stereo not drawn) [Compound I-214]	< 10	< 10		
N#C[C@]12CC3C[C@H](C1)[C@](NC(=O)c1cnc(N4CC5(CCOCC5)c5cc(OC6CCN(c7ncccn7)CC6)ccc54)nc1C(F)(F)F)(C(=O)O)[C@@H](C3)C2 [Compound I-218]	< 10	< 10		
O=C(NC1(C(=O)O)C2CC3CC(C2)CC1C3)c1ccc(-c2cn(C3CCC(F)(F)CC3)c3cc(OC4CCN(c5ncccn5)CC4)c(F)cc23)nc1C(F)(F)F (stereo not drawn) [Compound I-221]	100 to 5000	< 10		
O=C(NC1(C(=O)O)C2CC3CC(C2)CC1C3)c1ccc(-c2cn(C3CCC(F)(F)CC3)c3c(F)c(OC4CCN(c5ncccn5)CC4)ccc23)nc1C(F)(F)F (stereo not drawn) [Compound I-227]	< 10	< 10		
O=C(NC1(C(=O)O)C2CC3CC(C2)CC1C3)c1cnc(-c2cn(C3CCC(F)(F)CC3)c3nc(OC4CCN(c5ncccn5)CC4)ccc23)nc1C(F)(F)F (stereo not drawn) [Compound I-228]			36	1.3
O=C(NC1(C(=O)O)C2CC3CC(C2)CC1C3)c1cnc(-c2cn(C3CCC(F)(F)CC3)c3cc(OC4CCN(C5COC5)CC4)ccc23)nc1C(F)(F)F (stereo not drawn) [Compound I-234]	10 to 100	< 10		
